Laboratory results from ChEMBL document CHEMBL1154343, “Synthesis and biological evaluation of pyrrolopyridazine derivatives as novel HER-2 tyrosine kinase inhibitors” (Bioorg Med Chem Lett, 2009).

Assays:
[1] = biological target: T1, Epidermal growth factor receptor (Homo sapiens, UniProt P00533); assay: Inhibition of EGFR by HTRF assay
[2] = biological target: T1, Epidermal growth factor receptor; assay: Inhibition of EGFR in human A431 cells by HTRF assay
[3] = biological target: T2, Receptor tyrosine-protein kinase erbB-2 (Homo sapiens, UniProt P04626); assay: Inhibition of HER2 in human SKBR3 cells by HTRF assay
[4] = biological target: T2, Receptor tyrosine-protein kinase erbB-2; assay: Inhibition of HER2 by HTRF assay

T2 sequence (P04626 whole entry): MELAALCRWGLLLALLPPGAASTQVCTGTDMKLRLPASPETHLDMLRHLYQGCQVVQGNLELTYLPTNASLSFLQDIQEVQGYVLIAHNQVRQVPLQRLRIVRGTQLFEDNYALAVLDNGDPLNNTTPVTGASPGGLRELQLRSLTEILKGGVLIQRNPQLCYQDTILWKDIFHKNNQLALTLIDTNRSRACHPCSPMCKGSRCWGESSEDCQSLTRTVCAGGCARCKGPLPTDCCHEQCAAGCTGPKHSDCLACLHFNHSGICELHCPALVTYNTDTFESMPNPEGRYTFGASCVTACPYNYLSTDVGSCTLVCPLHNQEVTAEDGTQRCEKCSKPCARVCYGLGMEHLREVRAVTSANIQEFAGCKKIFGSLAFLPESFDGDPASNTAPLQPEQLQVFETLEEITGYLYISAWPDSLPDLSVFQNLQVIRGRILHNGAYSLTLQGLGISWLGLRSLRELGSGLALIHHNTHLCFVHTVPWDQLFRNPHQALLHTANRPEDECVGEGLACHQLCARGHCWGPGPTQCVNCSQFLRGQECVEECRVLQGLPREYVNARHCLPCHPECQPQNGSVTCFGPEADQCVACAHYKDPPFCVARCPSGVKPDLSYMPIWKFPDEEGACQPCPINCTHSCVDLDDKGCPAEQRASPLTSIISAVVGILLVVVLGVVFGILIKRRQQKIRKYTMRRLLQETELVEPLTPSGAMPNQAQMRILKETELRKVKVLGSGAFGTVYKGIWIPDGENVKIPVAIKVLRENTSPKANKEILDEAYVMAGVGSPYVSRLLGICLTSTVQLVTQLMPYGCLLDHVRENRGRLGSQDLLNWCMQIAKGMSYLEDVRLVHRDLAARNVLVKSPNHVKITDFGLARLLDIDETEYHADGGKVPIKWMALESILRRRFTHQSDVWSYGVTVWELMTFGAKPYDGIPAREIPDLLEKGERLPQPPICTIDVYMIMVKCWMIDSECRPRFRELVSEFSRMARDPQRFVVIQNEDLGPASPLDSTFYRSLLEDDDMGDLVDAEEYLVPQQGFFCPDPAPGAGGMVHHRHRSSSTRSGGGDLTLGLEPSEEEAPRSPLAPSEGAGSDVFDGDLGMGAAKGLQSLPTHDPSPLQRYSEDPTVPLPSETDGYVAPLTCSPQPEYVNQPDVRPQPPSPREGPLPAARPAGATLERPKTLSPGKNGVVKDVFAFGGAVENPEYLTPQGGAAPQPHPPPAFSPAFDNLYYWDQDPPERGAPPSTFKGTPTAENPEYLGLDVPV
T1 sequence (P00533 whole entry): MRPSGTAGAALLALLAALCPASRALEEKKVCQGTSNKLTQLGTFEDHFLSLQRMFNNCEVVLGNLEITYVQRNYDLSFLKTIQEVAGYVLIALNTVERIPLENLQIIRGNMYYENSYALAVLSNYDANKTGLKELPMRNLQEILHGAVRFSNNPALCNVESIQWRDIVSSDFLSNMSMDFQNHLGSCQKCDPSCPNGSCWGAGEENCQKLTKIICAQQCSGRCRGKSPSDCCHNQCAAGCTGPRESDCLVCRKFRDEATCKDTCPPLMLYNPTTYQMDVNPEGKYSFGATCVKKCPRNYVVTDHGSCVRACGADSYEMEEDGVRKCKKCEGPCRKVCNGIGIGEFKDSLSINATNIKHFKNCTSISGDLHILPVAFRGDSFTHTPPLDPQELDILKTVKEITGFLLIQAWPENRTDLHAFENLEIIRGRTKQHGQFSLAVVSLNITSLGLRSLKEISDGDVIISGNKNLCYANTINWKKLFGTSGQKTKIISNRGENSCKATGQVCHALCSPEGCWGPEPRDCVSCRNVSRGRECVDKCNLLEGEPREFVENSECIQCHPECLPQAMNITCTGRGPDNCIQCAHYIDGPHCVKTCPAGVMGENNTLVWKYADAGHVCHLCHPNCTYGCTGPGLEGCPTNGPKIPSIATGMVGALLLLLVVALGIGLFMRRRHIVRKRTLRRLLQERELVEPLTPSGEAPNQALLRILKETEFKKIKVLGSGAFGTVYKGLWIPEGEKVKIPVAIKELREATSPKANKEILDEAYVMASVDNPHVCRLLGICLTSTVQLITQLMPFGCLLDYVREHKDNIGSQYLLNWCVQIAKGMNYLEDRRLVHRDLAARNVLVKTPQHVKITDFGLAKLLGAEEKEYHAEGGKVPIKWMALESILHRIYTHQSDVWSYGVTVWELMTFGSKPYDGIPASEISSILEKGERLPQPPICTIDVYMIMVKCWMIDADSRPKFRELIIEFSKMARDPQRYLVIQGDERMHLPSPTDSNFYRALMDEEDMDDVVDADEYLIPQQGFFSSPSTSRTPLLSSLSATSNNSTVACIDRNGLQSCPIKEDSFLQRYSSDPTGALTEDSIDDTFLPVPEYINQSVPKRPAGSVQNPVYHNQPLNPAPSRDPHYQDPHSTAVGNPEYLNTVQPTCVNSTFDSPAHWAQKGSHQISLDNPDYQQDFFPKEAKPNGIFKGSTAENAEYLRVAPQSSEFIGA

IC50 [1] | IC50 [2] | IC50 [3] | IC50 [4] | SMILES
> 10 µM | 0.257 µM | 0.843 µM |  | Cc1c(C(=O)NCCN2CCN(C)CC2)[nH]c2cnnc(Nc3ccc(OCc4cccc(F)c4)c(Cl)c3)c12
> 10 µM | 15.1 µM | 0.62 µM |  | O=C(NCCN1CCCC1)c1cc2cnnc(Nc3ccc(OCc4cccc(F)c4)c(Cl)c3)c2[nH]1
> 10 µM | 1.21 µM | 0.934 µM |  | CCOC(=O)c1[nH]c(C)c2cnnc(Nc3ccc(OCc4cccc(F)c4)c(Cl)c3)c12
> 10 µM | 77.2 µM | 3.84 µM |  | CCN(CC)CCNC(=O)c1cc2cnnc(Nc3ccc(OCc4cccc(F)c4)c(Cl)c3)c2[nH]1
5 µM | 12.7 µM | > 5 µM | 0.004 µM | Cc1c(C(=O)NCCN2CCOCC2)[nH]c2cnnc(Nc3ccc(OCc4cccc(F)c4)c(Cl)c3)c12
> 10 µM | 0.98 µM | 2.24 µM |  | Cc1c(C(=O)NCCCN2CCN(C)CC2)[nH]c2cnnc(Nc3ccc(OCc4cccc(F)c4)c(Cl)c3)c12
 |  | > 5 µM |  | Cc1c(C(=O)NCCN2CCOCC2)[nH]c2cnnc(Nc3ccc(OCc4ccccn4)c(Cl)c3)c12
1.28 µM | 1.16 µM | 0.96 µM | 0.007 µM | CCN(CC)CCNC(=O)c1[nH]c2cnnc(Nc3ccc(OCc4cccc(F)c4)c(Cl)c3)c2c1C
